Laboratory results published in US20060084691A1, “Combined treatment with bortezomib and an epidermal growth factor receptor kinase inhibitor” (priority 2004, published 2006).
Structures can show the parent of a compound that is named as a salt.

Assays:
Assay type in all cases: cell-based, human
[1] = system: ubiquitinated p53 in A549 cells; assay: p53 expression by western blot; settings: A549 cells with wild type p53, single agent
Protocol: Cells were scraped from the culture, washed twice with PBS, and then suspended in 60-100 μL of Western blot lysis buffer containing 50 mM Tris-HCl (pH 7.5), 250 mM NaCl, 1 mM EDTA, 1 mM EGTA, 1 mM NaF, 1 mM phenylmethylsulfonyl fluoride, 1 mM DTT, 20 μg/mL leupeptin, 20 μg/mL aprotinin, 0.1% Triton X-100 and 1% SDS at 0-4° C. for 15 min. After centrifugation at 1500× g for 10 min at 0° C., the supernatants were collected, and the proteins were separated on 10% SDS-PAGE. After electrophoresis, protein blots were transferred to a nitrocellulose membrane. The membrane was blocked with 5% nonfat milk powder in TBST and incubated overnight with the corresponding primary antibodies at 4° C. After washing three times with TBST, the membrane was incubated at room temperature for 1 h with horseradish peroxidase-conjugated secondary antibody diluted with TBST (1:1000). The detected protein signals were visualized by an enchanced cheiluminescence reaction system (Amersham, Arlington Heights, Ill.).
A549 cells with wild type p53 were exposed to either bortezomib or erlotinib alone, or in combination concomitantly or sequentially 24-hr apart, and p53 expression was assessed by western blot.

H1299 = assay: MTT cytotoxicity assay, H1299; settings: H1299, 72 h
A549 = assay: MTT cytotoxicity assay, A549; settings: A549, 72 h
[2] = system: EGF-induced EGFR-phosphorylation; assay: EGF-induced EGFR phosphorylation in sensitive and resistant cells; settings: both sensitive and resistant cells
Protocol: Cells were scraped from the culture, washed twice with PBS, and then suspended in 60-100 μL of Western blot lysis buffer containing 50 mM Tris-HCl (pH 7.5), 250 mM NaCl, 1 mM EDTA, 1 mM EGTA, 1 mM NaF, 1 mM phenylmethylsulfonyl fluoride, 1 mM DTT, 20 μg/mL leupeptin, 20 μg/mL aprotinin, 0.1% Triton X-100 and 1% SDS at 0-4° C. for 15 min. […] After electrophoresis, protein blots were transferred to a nitrocellulose membrane. The membrane was blocked with 5% nonfat milk powder in TBST and incubated overnight with the corresponding primary antibodies at 4° C. After washing three times with TBST, the membrane was incubated at room temperature for 1 h with horseradish peroxidase-conjugated secondary antibody diluted with TBST (1:1000). The detected protein signals were visualized by an enchanced cheiluminescence reaction system (Amersham, Arlington Heights, Ill.).

H322 = assay: MTT cytotoxicity assay, H322; settings: H322, 72 h
H358 = assay: MTT cytotoxicity assay, H358; settings: H358, 72 h

| Structure (SMILES) | p53 expression (western blot) [1] | Sensitivity (cytotoxicity) (H1299) | Sensitivity (cytotoxicity) (A549) | EGF-induced EGFR-phosphorylation [2] | Sensitivity (cytotoxicity) (H322) | Sensitivity (cytotoxicity) (H358) |
| --- | --- | --- | --- | --- | --- | --- |
| CC(C)C[C@H](NC(=O)[C@H](Cc1ccccc1)NC(=O)c1cnccn1)B(O)O [bortezomib] | accumulation of ubiquitinated p53 |  |  |  |  |  |
| C#Cc1cccc(Nc2ncnc3cc(OCCOC)c(OCCOC)cc23)c1 [erlotinib HCl, [6,7-bis(2-methoxyethoxy)-4-quinazolin-4-yl]-(3-ethynylphenyl) amine] |  | resistant | resistant | inhibits | sensitive | sensitive |
